Assays:
strain NRRL-B-18535 = experiment: Sensitivity of the producer strain to nisin; format: cell-based, Lactococcus lactis
Excerpt: Inhibitory spectrum of LL-1. The plate assay system was used to evaluate the spectrum of bacteriocin activity. […] Strains of Streptococcus mutans, S. sanguis, S. faecalis and Listeria monocytogenes were not sensitive in this test. The strain NRRL-B-18535 was resistant to nisin.

L. monocytogenes 69 = experiment: Inhibition of Listeria, LL-1 compared with nisin; format: cell-based, Listeria monocytogenes; parameters: key: + = Inhibition; - = No inhibition; conditions: 370 IU/ml, nisin purified from the broth
Excerpt: This is shown by the following data in Table 5.

Listeria monocytogenes = experiment: Spot assay of filter sterilized supernatant (LL-1 broth) on indicator lawn; format: cell-based; conditions: as crude filter sterilized broth or dried powder from the broth, not purified
Protocol: To produce the bacteriocin, 500 ml of MRS broth (Difco) was inoculated at 1% with an 8 hour old culture of LLA 1.0 grown in MRS broth (Difco, Detroit, Mich.) and was incubated statically at 32° C. for 24 hours. After 24 hours the cells were removed by centrifugation at 16,000×g for 20 minutes at 4° C. The supernatant was filtered through a 0.22 micron (pore size) filter (Millipore Corp. Bedford, Mass.). The supernatant was assayed for bacteriocin activity by spotting 5 microliters of this supernatant material onto various media overlaid with soft agar seeded with different indicator cells. These assay plates were incubated at 35° C. or 32° C., respectively. After 24 hours the plates were examined, clear zones associated with the spot were recorded as positive (growth inhibition) and negative (no growth inhibition).

nisin
sensitivity of strain NRRL-B-18535 to nisin (strain NRRL-B-18535): resistant
Inhibition of L. monocytogenes 69 (L. monocytogenes 69): -
activity against Listeria monocytogenes, in words (Listeria monocytogenes): not effective

Source: US5702923A, “Method of making a lactococcal bacteriocin” (Quest International Flavors & Food Ingredients Company, a …, priority 1992, dated 1997)
